The text below walks through data of patent publication US5376634A, “Polypeptide compound and a process for preparation thereof” (Fujisawa Pharmaceutical Co., Ltd., priority 1990, dated 1994).

One data set deals with ICR mice. Nature of the data set: Acute toxicity, single intravenous injection. It counts as in vivo. Particulars: ICR mice (female, 4 weeks old), dose of 500 mg/kg. On the procedure: The acute toxicity of the FR131535 substance was determined to ICR mice (female, 4 weeks old) by a single intravenous injection.
Data set [1] is described as follows: Solubility (physico-chemical properties). The format is physicochemical.

SMILES strings stand for the structures. Starred links: 1 amine or outer side, 2 acyl side, 3 side chain; linkers in the order of their positions; H or OH if unused. Positions of bridges follow the written chain, without caps; N, C: chain ends. Non-standard residues stand in square brackets, D forms with d. Residues, ends and D or L forms follow the SMILES beside them. *: point of attachment. hTyr(3S-OH,4S-OH,3'-OSO3H) = N[C@H](C(=O)O)[C@H](O)[C@@H](O)c1ccc(O)c(OS(=O)(=O)O)c1; Orn(4R-OH,5S-OH) = O=C([C@H](C[C@@H](O)[C@H](O)N[*:3])N[*:1])[*:2]; Pro(3S-OH,4S-Me) = C[C@H]1CN[C@H](C(=O)O)[C@H]1O; Benzoyl(4-octyloxy) = CCCCCCCCOc1ccc(C(=O)*)cc1; Gln(3R-OH) = NC(=O)C[C@@H](O)[C@H](N)C(=O)O; Hyp = O=C(O)[C@@H]1C[C@@H](O)CN1

Regarding `CCCCCCCCOc1ccc(C(=O)N[C@H]2C[C@@H](O)[C@H](O)NC(=O)[C@@H]3[C@@H](O)[C@@H](C)CN3C(=O)[C@H]([C@H](O)CC(N)=O)NC(=O)[C@H]([C@H](O)[C@@H](O)c3ccc(O)c(OS(=O)(=O)O)c3)NC(=O)[C@@H]3C[C@@H](O)CN3C(=O)[C@H]([C@@H](C)O)NC2=O)cc1` [FR131535] ({Benzoyl(4-octyloxy)}-[Orn(4R-OH,5S-OH)]T[Hyp][hTyr(3S-OH,4S-OH,3'-OSO3H)][Gln(3R-OH)][Pro(3S-OH,4S-Me)]; lactam 1-C), in the data set on ICR mice, the acute toxicity result is reported as “No toxic symptom was observed”. In addition, the Solubility entry is “slightly soluble” in data set [1] (acetone), “soluble” in data set [1] (methanol), “insoluble” in data set [1] (n-hexane) and “soluble” in data set [1] (water).
